Laboratory results: PMC9414910, “Optimized ^68Ga-Labeled Urea-Based PSMA-Targeted PET Tracers for Prostate Cancer” (Pharmaceuticals, 2022)

Experiments:
[1] = molecular target: T1, Recombinant human PSMA (rhPSMA) (Homo sapiens, UniProt Q04609); assay: NAALADase assay (enzyme-based assay on rhPSMA); assay type: biochemical; conditions: NAAG substrate, unlabeled ligands, read-out: Ki (PSMA inhibition constant)
T1 construct: purchased R&D systems, Wiesbaden, Germany
Description: (§1) The partition coefficient of each novel radiotracer was determined using an octanol–water system (v/v = 1:1). The in vitro stability was determined using two systems (PBS and 5% BSA). The Ki value was measured by the NAALADase assay. The 22Rv1 and PC-3 cell lines were used for the cell-binding study and establishment of the tumor-bearing model (detailed information is shown in the Supplementary Materials).
The PSMA-inhibitory activity of novel PSMA ligands was analyzed by performing an enzyme-based assay on rhPSMA [11].
PBS) and reported as log p ± SD.
The in vitro stability of radiotracers was determined by measuring radiochemical purity (RCP) in […] and 5% bovine serum albumin (BSA) at 37 °C at different time intervals (30 min, 60 min, 120 min) using radio-HPLC.
Recombinant human PSMA (rhPSMA, R&D systems, Wiesbaden, Germany) was diluted in assay buffer (50 mM HEPES, 0.1 M NaCl, pH 7.5) to 0.4 μg/mL. […]
250 μL of ortho-phthaldialdehyde solution (OPA, 15 mM, Sigma, Taufkirchen, Germany) was added to each vial and incubated for 3 min at room temperature. 200 μL aliquot of each vial was added into a 96 black well plate and read at excitation and emission wavelengths of 350 and 450 nm using a microplate reader. […] The data were analyzed by the one-site total binding regression algorithm of GraphPad

[2] = Partition coefficient, octanol–water system; assay type: physicochemical; conditions: octanol–water (v/v = 1:1), n = 3
Description: as §1
PBS) and reported as log p ± SD. […]

22Rv1 cells (mild PSMA+) = assay: Cell uptake / binding in 22Rv1 cells; assay type: cell-based, human; conditions: 60 min incubation, 37 °C
Source text: Cell lines were kindly provided by the stem cell bank of the Chinese Academy of Sciences. The human prostate cancer epithelial cell lines 22Rv1 (mild PSMA+) and PC-3 (with no PSMA receptor) were used to evaluate the specific cell-binding affinity of the radiotracers, and the results were expressed as percentages of injected activity, IA%/10^6.
Cell Lines and Culture Condition
Cell lines were kindly provided by the stem cell bank, the Chinese Academy of Sciences. The human prostate cancer cell lines 22Rv1 ( mild PSMA positive) and PC3 (PSMA negative) were cultured in RPMI 1640 medium or F12K medium (CORNING, America), supplemented with 10% Fetal Bovine Serum
(GIBCO, The Netherlands) and 1% penicillin-streptomycin (CORNING, America) in a humidified incubator at 37 °C under 5% CO2. Each cell line was passaged when it was at around 80-90% confluence, and harvested using trypsin-ethylenediaminetetraacetic acid (trypsin-EDTA; 0.25% trypsin, 0.02% EDTA, all from KeyGEN BioTECH).
Cells were seeded separately in 24 well plates (1 x 10^5 cells in 1 mL medium/well) and incubated overnight, the medium was changed 2 h before the experiment. For the binding experiments, cells were incubated with novel […]
min, 30 min and 60 min (6 wells/time point). After incubation, the medium was removed and the cells were washed twice with ice-cold phosphate-buffered saline (0.5 mL). Finally, the cells were lysed by NaOH (0.5 M, 0.5 mL). Coincubation of 2-(phosphonomethyl) pentane-1,5-dioic acid […]
(2-PMPA) solution (2 μg/well) and each radiotracer for 60 min was conducted as the blocking experiment. The radioactivity of cells was measured by a γ-counter. The studies were performed in triplicate and the results were reported as the percentage injected activity (IA%/10^6 cells). […]

[3] = Blood pharmacokinetics in male ICR mice; assay type: in vivo; conditions: 7.4 MBq i.v., two-compartment model
Description: Injection of novel radiotracers or [68Ga]Ga-PSMA-617 or [68Ga]Ga-PSMA-11 […]
mice (5 mice/group), and the blood sample (5 μL) of each mouse was collected by cutting down the tail end at different time points post injection. The radioactivity of blood samples were measured by a γ-counter and the pharmacokinetics data was calculated using the WinNonlin software.
Figure S3. Time-activity curves of the blood samplesafter injection of 7.4 MBq of [68Ga]Ga-PSMA-4PY (A), [68Ga]Ga-PSMA-Q (B),[68Ga]Ga-PSMA-P (C), [68Ga]Ga-PSMA-617 (D), [68Ga]Ga-PSMA-11 (E), [68Ga]Ga-PSMA-Q-1 (F), [68Ga]Ga-PSMA-Q-2 (G) and [68Ga]Ga-PSMA-Q-3 (H).
(1 picture or pasted object on this page, not shown here)

22Rv1 tumor-bearing mice = assay: Biodistribution in 22Rv1 tumor-bearing mice; conditions: for Uptake Blood, Mean / Uptake Bone, Mean / Uptake Heart, Mean / Uptake Kidney, Mean / Uptake Liver, Mean / Uptake Lung, Mean / Uptake Muscle, Mean / Uptake Spleen, Mean / Uptake Tumor (22Rv1), Mean: 0.74 MBq, n = 3; for Clearance profile in the kidneys: within 60 min p.i.
Description: (§2) The animal studies were approved by the institutional animal care and use committee of the Chinese PLA General Hospital. Healthy male ICR mice were injected with either a novel radiotracer (37 MBq in 150 μL) or saline (150 μL) for the radiotoxicity evaluation. […] Biodistribution and micro-PET studies were performed on 22Rv1 and PC-3 xenograft models, and 2-PMPA was used as the PSMA blocker (all details are shown in the Supplementary Materials).
BALB/c nude mice (male, 4-6 weeks) were inoculated subcutaneously with […]
100 mm3, the mice underwent biodistribution study and Micro-PET imaging.
The 22Rv1 tumor-bearing mice were injected with each novel radiotracer or […]
[…] Mice were sacrificed at different time points p.i. (10 min, 30 min, 60 min), tumors and interested organs were harvested, weighed and measured by a γ-counter, the results were expressed as the percentage of injected dose per gram (ID%/g).
Table S1. Uptake values for ex vivo tissues of [ 68Ga]Ga-PSMA-Q (0.74 MBq/mice) in 22Rv1 tumor-bearing mice (10, 30 and 60 min p.i., n = 3/time point).

22Rv1 tumors = assay: Micro-PET imaging in 22Rv1 tumor-bearing mice; assay type: in vivo; conditions: 60 min p.i.; for SUVmax of tumor: 22Rv1 tumor, 7.4 MBq
Description: as §2
Table S9. Tumor-to-mu scle (T/M) ratio and tumor- to-kidney (T/K) rati o of radiotracers at 60 min p.i.
The Mice bearing 22Rv1 and PC-3 (n = 3/group) xenograft tumors were […]
Co-injection with 2-PMPA (50 μ g) and each novel tracer (7.4 MBq in 150 μL) was used for blocking. Then the mice were anesthetized with 3% (v/v) isoflurane and underwent Micro-PET scans with continuous 1% (v/v) isoflurane. The images were acquired at 60 min p.i.. In comparison, […]
into another group of mice (n = 3), and Micro-PET schedule was performed as […]
Imaging was performed on a Super Nova PET/CT scanner using a 100-mm-transaxial field of view for PET and 110-mm for CT.
Three-dimensional ordered-subsets expectation maximization reconstruction

[4] = Radiotoxicity study in male ICR mice; assay type: in vivo
[5] = 60 min p.i., listed as [68Ga]Ga-PSMA-Q
[6] = biodistribution, 22Rv1 tumor-bearing mice, 60 min p.i.

T1 sequence (Q04609 whole entry): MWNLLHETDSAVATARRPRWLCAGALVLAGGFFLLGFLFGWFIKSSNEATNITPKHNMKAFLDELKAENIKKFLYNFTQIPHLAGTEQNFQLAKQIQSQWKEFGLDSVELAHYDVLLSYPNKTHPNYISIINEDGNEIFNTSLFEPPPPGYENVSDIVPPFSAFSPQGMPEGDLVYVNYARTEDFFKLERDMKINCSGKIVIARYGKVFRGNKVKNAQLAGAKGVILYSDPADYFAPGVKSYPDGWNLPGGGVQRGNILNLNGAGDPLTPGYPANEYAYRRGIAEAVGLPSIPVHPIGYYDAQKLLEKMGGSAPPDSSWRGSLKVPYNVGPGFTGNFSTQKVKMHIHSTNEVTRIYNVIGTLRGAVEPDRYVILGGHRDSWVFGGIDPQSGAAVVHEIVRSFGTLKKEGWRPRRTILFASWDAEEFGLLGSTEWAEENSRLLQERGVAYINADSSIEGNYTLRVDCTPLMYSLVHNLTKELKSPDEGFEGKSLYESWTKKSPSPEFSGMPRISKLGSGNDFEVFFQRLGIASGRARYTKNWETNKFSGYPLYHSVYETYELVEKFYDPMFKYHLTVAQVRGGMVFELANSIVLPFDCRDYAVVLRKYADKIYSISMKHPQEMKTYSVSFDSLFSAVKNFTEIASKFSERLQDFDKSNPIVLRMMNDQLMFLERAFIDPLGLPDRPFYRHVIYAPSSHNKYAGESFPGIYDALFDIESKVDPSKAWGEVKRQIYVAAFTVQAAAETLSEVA

Row | SMILES | Ki [1] | Log p pH = 7.4 [2] | Uptake in 22Rv1 cells (22Rv1 cells (mild PSMA+)) | Elimination half-life [3] | Uptake Blood, Mean (22Rv1 tumor-bearing mice; 10 min p.i.) | Uptake Bone, Mean (22Rv1 tumor-bearing mice; 10 min p.i.) | Uptake Heart, Mean (22Rv1 tumor-bearing mice; 10 min p.i.) | Uptake Kidney, Mean (22Rv1 tumor-bearing mice; 10 min p.i.) | Uptake Liver, Mean (22Rv1 tumor-bearing mice; 10 min p.i.) | Uptake Lung, Mean (22Rv1 tumor-bearing mice; 10 min p.i.) | Uptake Muscle, Mean (22Rv1 tumor-bearing mice; 10 min p.i.) | Uptake Spleen, Mean (22Rv1 tumor-bearing mice; 10 min p.i.) | Uptake Tumor (22Rv1), Mean (22Rv1 tumor-bearing mice; 10 min p.i.) | Uptake Blood, Mean (22Rv1 tumor-bearing mice; 30 min p.i.) | Uptake Bone, Mean (22Rv1 tumor-bearing mice; 30 min p.i.) | Uptake Heart, Mean (22Rv1 tumor-bearing mice; 30 min p.i.) | Uptake Kidney, Mean (22Rv1 tumor-bearing mice; 30 min p.i.) | Uptake Liver, Mean (22Rv1 tumor-bearing mice; 30 min p.i.) | Uptake Lung, Mean (22Rv1 tumor-bearing mice; 30 min p.i.) | Uptake Muscle, Mean (22Rv1 tumor-bearing mice; 30 min p.i.) | further results
1 | O=C(O)CC[C@H](NC(=O)N[C@@H](CCCCNC(=O)[C@H](Cc1ccc2ccccc2c1)NC(=O)[C@H]1CC[C@H](CNC(=O)CN2CCN(CC(=O)O)CCN(CC(=O)O)CCN(CC(=O)O)CC2)CC1)C(=O)O)C(=O)O [PSMA-617, reference compound] | 0.00289 ± 0.00107 µM | – | – | – | – | – | – | – | – | – | – | – | – | – | – | – | – | – | – | – | –
2 | O=C(O)CCC(NC(=O)NC(CCCCNC(=O)C(Cc1cc2ccc3cccc4ccc(c1)c2c34)NC(=O)C1CCC(CNC(=O)CN2CCN(CC(=O)O)CCN(CC(=O)O)CCN(CC(=O)O)CC2)CC1)C(=O)O)C(=O)O (stereo not shown) [PSMA-P] | 0.0424 ± 0.00211 µM | – | – | – | – | – | – | – | – | – | – | – | – | – | – | – | – | – | – | – | –
3 | O=C([O-])CN1CCN(CC(=O)[O-])CCN(CC(=O)NCc2ccc(C(=O)NC(Cc3cnc4ccccc4c3)C(=O)NCCCCC(NC(=O)NC(CCC(=O)O)C(=O)O)C(=O)O)cc2)CCN(CC(=O)O)CC1.[68Ga+3] (stereo not shown) [[^68Ga]Ga-PSMA-Q-3] | – | −2.99 ± 0.33 | 3.31 ± 0.49 IA%/10^6 | 25.72 ± 1.87 min | 1.68 ID%/g | 0.67 ID%/g | 1.87 ID%/g | 21.45 ID%/g | 1.53 ID%/g | 0.83 ID%/g | 0.72 ID%/g | 1.12 ID%/g | 1.88 ID%/g | 0.72 ID%/g | 0.33 ID%/g | 1.29 ID%/g | 13.88 ID%/g | 1.18 ID%/g | 0.53 ID%/g | 0.40 ID%/g | Uptake Spleen, Mean (22Rv1 tumor-bearing mice; 30 min p.i.): 0.94 ID%/g; Uptake Tumor (22Rv1), Mean (22Rv1 tumor-bearing mice; 30 min p.i.): 2.77 ID%/g; Uptake Blood, Mean (22Rv1 tumor-bearing mice; 60 min p.i.): 0.34 ID%/g; Uptake Bone, Mean (22Rv1 tumor-bearing mice; 60 min p.i.): 0.23 ID%/g; Uptake Heart, Mean (22Rv1 tumor-bearing mice; 60 min p.i.): 1.11 ID%/g; Uptake Kidney, Mean (22Rv1 tumor-bearing mice; 60 min p.i.): 2.65 ID%/g; Uptake Lung, Mean (22Rv1 tumor-bearing mice; 60 min p.i.): 0.43 ID%/g; Uptake Muscle, Mean (22Rv1 tumor-bearing mice; 60 min p.i.): 0.19 ID%/g; Uptake Spleen, Mean (22Rv1 tumor-bearing mice; 60 min p.i.): 0.59 ID%/g; Uptake Tumor (22Rv1), Mean (22Rv1 tumor-bearing mice; 60 min p.i.): 3.31 ± 0.29 ID%/g; Uptake Tumor (22Rv1), Mean (22Rv1 tumor-bearing mice; 60 min p.i., listed as [68Ga]Ga-PSMA-Q-3): 3.31 ID%/g; Clearance profile in the kidneys (22Rv1 tumor-bearing mice): washed out rapidly from the kidneys; SUVmax of tumor (22Rv1 tumors): 0.88 ± 0.18
4 | O=C([O-])CN1CCN(CC(=O)[O-])CCN(CC(=O)NCC2CCC(C(=O)NC(Cc3cnc4ccccc4c3)C(=O)NCCCCC(NC(=O)NC(CCC(=O)O)C(=O)O)C(=O)O)CC2)CCN(CC(=O)O)CC1.[68Ga+3] (stereo not shown) [[^68Ga]Ga-PSMA-Q] | – | −3.24 ± 0.21 | 3.75 ± 0.35 IA%/10^6 | 17.86 ± 1.23 min | 2.62 ID%/g | 0.72 ID%/g | 2.07 ID%/g | 8.79 ID%/g | 2.13 ID%/g | 1.10 ID%/g | 0.70 ID%/g | 2.16 ID%/g | 1.86 ID%/g | 1.04 ID%/g | 0.22 ID%/g | 0.98 ID%/g | 5.91 ID%/g | 1.14 ID%/g | 0.76 ID%/g | 0.21 ID%/g | Uptake Spleen, Mean (22Rv1 tumor-bearing mice; 30 min p.i.): 1.73 ID%/g; Uptake Tumor (22Rv1), Mean (22Rv1 tumor-bearing mice; 30 min p.i.): 2.98 ID%/g; Uptake Blood, Mean (22Rv1 tumor-bearing mice; 60 min p.i.): 0.31 ID%/g; Uptake Bone, Mean (22Rv1 tumor-bearing mice; 60 min p.i.): 0.21 ID%/g; Uptake Heart, Mean (22Rv1 tumor-bearing mice; 60 min p.i.): 0.08 ID%/g; Uptake Liver, Mean (22Rv1 tumor-bearing mice; 60 min p.i.): 0.70 ID%/g; Uptake Lung, Mean (22Rv1 tumor-bearing mice; 60 min p.i.): 0.33 ID%/g; Uptake Muscle, Mean (22Rv1 tumor-bearing mice; 60 min p.i.): 0.13 ID%/g; Uptake Spleen, Mean (22Rv1 tumor-bearing mice; 60 min p.i.): 0.35 ID%/g; Uptake Tumor (22Rv1), Mean (22Rv1 tumor-bearing mice; 60 min p.i.): 4.06 ± 0.36 ID%/g; Uptake Kidney, Mean (22Rv1 tumor-bearing mice; [5]): 2.46 ID%/g; Uptake Tumor (22Rv1), Mean (22Rv1 tumor-bearing mice; [5]): 4.06 ID%/g; Tumor-to-kidney (T/K) ratio (22Rv1 tumor-bearing mice; [6]): 1.60 ± 0.08; Tumor-to-muscle (T/M) ratio (22Rv1 tumor-bearing mice; [6]): 31.44 ± 2.09; Clearance profile in the kidneys (22Rv1 tumor-bearing mice): washed out rapidly from the kidneys; SUVmax of tumor (22Rv1 tumors): 0.97 ± 0.24; Tumor-to-muscle ratio (micro-PET) (22Rv1 tumors; 22Rv1 tumor-bearing mice): 59.33 ± 5.72; Survival ([4]; 37 MBq in 150 μL, 14 days): did not die within 14 days; Routine blood tests and H&E staining of the main organs vs control ([4]; 37 MBq in 150 μL, vs saline): no significant differences; Acute radiotoxicity-related adverse events ([4]; toxicity experiments in mice): no acute radiotoxicity-related adverse events were observed
